# Test results published in publication PMC12040169 (PLOS Biology, 2025).
# Experiment: in vitro
# Details: human, hela cells, % viability
row,Structure (SMILES),"viability at 28.5 h, 10 µM"
1,COC(=O)c1ccc2c(=O)n(CCc3ccc(S(N)(=O)=O)cc3)c(=S)[nH]c2c1 [CBK268238],91.2%
2,O=C(CSc1ccc2ccccc2c1)Nc1ccc(Cl)c(C(=O)O)c1 [CBK268239],103%
3,O=C(O)CCN1C(=O)c2ccc(NC(=O)Cc3cccs3)cc2C1=O [CBK268240],95.9%
4,CCc1cc(-c2n[nH]c(C(=O)O)c2-c2nc(C)cs2)c(O)cc1O [CBK268247],99.4%
5,CN1CCN(C(=O)COc2ccc(S(=O)(=O)Nc3ccc(Cl)cc3)cc2)CC1 [CBK268248],102%
6,CC(Cc1c[nH]c2ccccc12)NC(=N)NC(=N)N (stereo not shown) [CBK268251C],91.7%
7,COc1cc(NC(=O)COc2cccc3ccccc23)c(C(=O)O)cc1OC [CBK268253],76.6%
8,Cc1cc(C)cc(Nc2c([N+](=O)[O-])nn(-c3cccc(Cl)c3)[n+]2[O-])c1 [CBK268254],105%
9,CCNS(=O)(=O)c1ccc(CCC(=O)Nc2ccc3c(c2)OCCO3)cc1 [CBK268255],109%
10,COc1ccccc1NC(=O)Cn1cc(C(=O)c2cccs2)c2ccccc21 [CBK268256],98.6%
11,CCNS(=O)(=O)c1ccc(NS(=O)(=O)Cc2ccccc2)cc1 [CBK268257],100%
12,Cc1ccc(-c2nnc3sc(-c4cnccn4)nn23)cc1 [CBK268258],98.9%
13,Cn1c(CN2CCN(C(=O)Nc3ccccc3)CC2)nc2cc([N+](=O)[O-])ccc21 [CBK268260],91.8%
14,c1csc(-c2nn3c(Cn4cnc5ccccc54)nnc3s2)c1 [CBK268262],87.9%
15,O=S(=O)(Nc1ccc(Cc2ccncc2)cc1)N1CCCC1 [CBK268263],112%
16,COc1ccc(-c2noc(CSc3nc4sc(C)c(C)c4c(=O)n3-c3ccccc3)n2)cc1 [CBK268264],100%
17,COc1ccc(-c2nc(NCc3ccccc3)n(C(=O)c3ccc([N+](=O)[O-])cc3)n2)cc1 [CBK268265],92.8%
18,Clc1ccc2nc(SCc3csc(Nc4ccccc4)n3)oc2c1 [CBK268269],100%
19,COc1ccc([N+](=O)[O-])cc1NC(=O)CSCc1ccc(Br)cc1 [CBK268272],90.9%
20,O=[N+]([O-])c1ccc(/C=C/c2nn3c(Cn4cnc5ccccc54)nnc3s2)cc1 [CBK268273],104%
21,COC(=O)c1ccc(NC(=O)CN2CCC(C(N)=O)(N3CCCCC3)CC2)cc1 [CBK268275],95.5%
22,Nc1nonc1C(=O)NCCNc1ccc([N+](=O)[O-])cn1 [CBK268279],97.7%

row,Structure (SMILES),"viability at 28.5 h, 10 µM"
1,O=C(Nc1ccc(O)c(C(=O)O)c1)c1ccc2c(c1)C(=O)N(CC1CCCO1)C2=O (stereo not shown) [CBK268280],101%
2,Cn1c(/C=C/C=C/CN2CCN(Cc3ccccc3)CC2)nc2ccc([N+](=O)[O-])cc21 [CBK268281],91.2%
3,O=C(O)c1cc(C(=O)O)n(Cc2ccc(Cl)cc2Cl)n1 [CBK268283],103%
4,CN1CCN(NC(=O)C23CCC(C)(C(=O)O2)C3(C)C)CC1 (stereo not shown) [CBK268285],99.1%
5,Cc1cc(S(=O)(=O)N2CCCC2)ccc1OCC(=O)O [CBK268289],89%
6,Cc1cc2c(=O)n(Cc3ccco3)c(SCc3cc(O)[nH]n3)nc2s1 [CBK268291],94.3%
7,COc1ccc(C(=O)NC(=S)Nc2ccccc2N2CCN(C)CC2)cc1[N+](=O)[O-] [CBK268292C],87%
8,O=C(COc1ccc(S(=O)(=O)N2CCc3ccccc32)cc1Cl)NCc1ccco1 [CBK268293],102%
9,O=C(CN1C(=O)COc2ccc(Cl)cc21)Nc1ccc2[nH]c(=O)[nH]c2c1 [CBK268295],111%
10,S=C(NCCc1ccccn1)NCCN1CCOCC1 [CBK268296],101%
11,Cc1cc(C)nc(SCC(=O)Nc2ccc(S(=O)(=O)NC3CCCCC3)cc2)n1 [CBK268299],86%
12,CCC(c1nc2ccccc2c(=O)n1-c1cccnc1)N1C(=O)c2ccccc2C1=O (stereo not shown) [CBK268300],99.1%
13,O=c1c2c3c(sc2nc(SCc2cc(O)[nH]n2)n1Cc1ccco1)CCC3 [CBK268301],99.4%
14,Cc1cc(C)c(NC(=O)CSCc2cc(O)[nH]n2)c(Cl)c1 [CBK268302],93.8%
15,CN1CCN(C(=O)CCc2nc(-c3ccc(Cl)cc3)no2)CC1 [CBK268304],117%
16,O=c1c2c3c(sc2nc(SCc2nc4ccccc4[nH]2)n1Cc1ccco1)CCC3 [CBK268306],104%
17,Cc1cc(C)c2c(CC(=O)NCCCN3CCOCC3)coc2c1 [CBK268307],96.8%
18,CCOc1ccc(NC(=O)C(C)O)c(NS(=O)(=O)c2ccc3ccccc3c2)c1 (stereo not shown) [CBK268309],87.6%
19,CS(=O)(=O)N1CCc2cc(S(=O)(=O)N3CCN(c4ccc([N+](=O)[O-])c(NCc5ccccc5)c4)CC3)ccc21 [CBK268311],102%
20,Cn1c(CN2CCCC2)nc2cc(NC(=O)c3cccc([N+](=O)[O-])c3)ccc21 [CBK268316],98.6%
21,CN(C)S(=O)(=O)N(CC(=O)NCc1ccncc1)c1ccccc1 [CBK268322],111%
22,N=c1c2c3c(sc2ncn1CCCN1CCOCC1)CCCC3 [CBK268323],94.6%

row,Structure (SMILES),"viability at 28.5 h, 10 µM"
1,O=C(CCS(=O)(=O)Cc1ccccc1)n1nnc2ccccc21 [CBK268324],99.4%
2,O=C(O)C1CCN(c2ncnc3sc4c(c23)CCC4)CC1 [CBK268326],98.9%
3,O=C1c2ccccc2C(=O)N1CCc1nc2c3c4c(sc3ncn2n1)CCCCC4 [CBK268327],96.6%
4,c1ccc(OCc2nn3c(Cn4nnc5ccccc54)nnc3s2)cc1 [CBK268330],95.9%
5,Cc1ccc(C(=O)O)cc1NC(=O)C(C)Oc1cccc(Cl)c1 (stereo not shown) [CBK268331],95.7%
6,COc1cc2[nH]c(=S)n(CCc3c[nH]cn3)c(=O)c2cc1OC [CBK268333],102%
7,CSc1nsc(SCc2cnc(C)nc2N)n1 [CBK268337],105%
8,COC(=O)COc1ccc(NC(=O)c2ccc([N+](=O)[O-])c(C)c2)cc1 [CBK268338],103%
9,CC1CCN(S(=O)(=O)c2ccc(NC(=O)CN3CCOCC3)cc2)CC1 [CBK268339],81.4%
10,O=C(CCc1nc(-c2ccccc2F)no1)Nc1ccccc1[N+](=O)[O-] [CBK268341],86.9%
11,CN1CCN(c2ccccc2NC(=O)c2cccc(OCc3ccccc3)c2)CC1 [CBK268345],102%
12,O=C(Nc1ccc(S(=O)(=O)N2CCCCC2)cc1)c1ccc(NS(=O)(=O)c2ccccc2)cc1 [CBK268348],88.3%
13,Cc1nnc(SCC(=O)n2c3c(c4ccccc42)CCCC3)n1C [CBK268351],111%
14,COc1ccc(CCNS(=O)(=O)c2ccc(C3CNC(=O)C3)cc2)cc1OC (stereo not shown) [CBK268352],112%
15,Cc1ccc(S(=O)(=O)NC(C)(C)CSc2ccccc2)cc1 [CBK268354],88.6%
16,COc1cc2c(cc1NS(=O)(=O)N1CCCCC1)oc1ccccc12 [CBK268355],85.8%
17,O=C(CSc1nnc2c(n1)[nH]c1ccccc12)NCCOc1ccccc1 [CBK268358],101%
18,Cn1c(COc2ccc(Cl)cc2Cl)nnc1SCC(=O)N1c2ccccc2SC2C=CC=CC21 (stereo not shown) [CBK268359],103%
19,Cc1nc2ccccc2nc1CSc1nnc(Cc2ccccc2)n1-c1ccccc1 [CBK268360],104%
20,Cc1cccc(C(=O)O)c1NC(=O)Cc1cccc2ccccc12 [CBK268361],111%
21,Cn1c(CN2CCN(S(C)(=O)=O)CC2)nc2cc([N+](=O)[O-])ccc21 [CBK268362],98.4%
22,COC(=O)c1c(C)n(CCCNc2ccc([N+](=O)[O-])cc2Cl)c2ccc(O)cc12 [CBK268363],86.2%

row,Structure (SMILES),"viability at 28.5 h, 10 µM"
1,NC(=O)C1(N2CCCCC2)CCN(CC(=O)Nc2ccc(Br)cc2)CC1 [CBK268364],86.2%
2,O=C(Nc1ccc(Cc2ccc(NC(=O)c3ccccc3F)c(O)c2)cc1O)c1ccccc1F [CBK268366],90.4%
3,CCNS(=O)(=O)c1ccc(CCC(=O)Nc2ccc3c(c2)OCO3)cc1 [CBK268367],101%
4,Cc1cc(C)n2c(SCC(C)(C)NS(=O)(=O)c3ccccc3)nnc2n1 [CBK268369],111%
5,COc1ccc2[nH]c(/C(C#N)=C\c3ccc(-c4cc(C(=O)O)ccc4Cl)o3)nc2c1 [CBK268370],90.4%
6,COc1ccccc1-c1nn2c(Cn3nnc4ccccc43)nnc2s1 [CBK268373],82.4%
7,COC(=O)Nc1ncc(CN2CCc3ccccc3C2)s1 [CBK268376],97.5%
8,O=C(COc1ccc(S(=O)(=O)N2CCOCC2)cc1)NCc1ccco1 [CBK268377],108%
9,Cc1cc(C)n(-c2nc3cc(Cl)ccc3nc2Nc2ccc3c(c2)OCO3)n1 [CBK268380],91.9%
10,CN(C)S(=O)(=O)n1cc(/C=C/c2nc(N)nc(-c3ccccc3O)n2)c2ccccc21 [CBK268386],119%
11,CC1CCN(CC(=O)Nc2sc3c(c2C(=O)NCc2ccccc2)CCCC3)CC1 [CBK268387],107%
12,CN(CC(=O)O/N=C(\N)c1ccc(I)cc1)S(=O)(=O)c1cc(Cl)ccc1Cl [CBK268389],89.6%
13,COc1ccc(-c2noc(CSc3nnc(-c4cccs4)n3-c3ccccc3)n2)cc1 [CBK268390],107%
14,CC(C)(C)c1cc(CCC(=O)NNC(=O)c2ccccc2Cl)cc(C(C)(C)C)c1O [CBK268391],109%
15,CN(C)c1ccc(Nc2nc(NCCO)c3ccccc3n2)cc1 [CBK268392C],87.6%
16,c1ccc2c(c1)nnn2Cc1nnc2sc(-c3cnccn3)nn12 [CBK268393],84.7%
17,CC(C)(C)c1ccc(C(=O)CSCC(=O)Nc2ccc3ccccc3c2)cc1 [CBK268394],85.2%
18,CC(=O)Nc1ccc(S(=O)(=O)NC2(C(F)(F)F)C(=O)Nc3c2c(=O)[nH]c(=S)n3Cc2ccco2)cc1 (stereo not shown) [CBK268395],96.8%
19,Cn1c(COc2ccccc2)nnc1SCC(=O)c1cccc([N+](=O)[O-])c1 [CBK268397],101%
